Source: patent US8835476B2, “Synthesis of novel antimicrobials” (priority 2005, dated 2014)
Values after ≈ are worked out from the molar mass of the structure shown. Where two headings read alike, the source gives them in different places.

Tests used:
Assay type in all cases: cell-based
A. anitratus ATCC 19606 = assay: Broth microdilution MIC, ATCC strains; conditions: Acinetobacter calcoaceticus
From the text: (§1) All clinical isolates tested were from The North American Urinary Tract Infection Collaborative Alliance (NAUTICA) which is a UTI surveillance study involving 40 medical centres (30 from the US and 10 from Canada). Each centre submitted up to 50 consecutive outpatient midstream urine isolates. All isolates were deemed significant urinary tract pathogens by individual laboratory criteria and identified to the species level by each laboratory's existing protocol. Isolates were transported to the coordinating laboratory (Health Sciences Centre, Winnipeg, Canada) on charcoal swabs. Only one isolate per patient was accepted. Upon receipt, isolates were cultured by the coordinating laboratory, stocked in skim milk, and stored at −80° C. awaiting reference antibiotic susceptibility testing. Elementary demographic information was also compiled for each isolate. Isolates were selected randomly from the above pool to represent 18 different species of Enterobacteriaceae and non-Enterobacteriaceae. An average of 5 strains of each species were tested for a total of 93 organisms. In addition, 23 reference (ATCC) [both gram negative and gram positive] strains were tested.
(§2) Susceptibilities to the compounds were determined using the National Committee for Clinical Laboratory Standards (NCCLS) M7-A6 broth microdilution method. […] DMSO controls were incorporated into the panel to mimic the quantity of DMSO used in dissolving some of the compounds at the higher concentrations. Each final panel well volume was 100 μl with a bacterial inoculum of 5×10^5 colony forming units (CFU)/ml. Panels were read following 16 to 20 hours of incubation at 35° C. in ambient air. The minimum inhibitory concentration (MIC) was defined as the lowest concentration of antimicrobial inhibiting visible growth. Quality control (QC) was performed using four ATCC QC organisms that were run with every batch set up to insure reproducibility.

E. aerogenes ATCC 13048 = assay: Broth microdilution MIC, ATCC strains; conditions: Klebsiella aerogenes, ATCC13048, read-out: MIC (growth inhibition, microdilution method)
From the text: as §1, §2

E. cloacae ATCC 23355 = assay: Broth microdilution MIC, ATCC strains; conditions: Enterobacter cloacae, ATCC23355, read-out: MIC (growth inhibition, microdilution method)
From the text: as §1, §2

K. pneumoniae ATCC 13883 = assay: Broth microdilution MIC, ATCC strains; conditions: Klebsiella pneumoniae, ATCC13883, read-out: MIC (growth inhibition, microdilution method)
From the text: as §1, §2

P. mirabilis ATCC 29245 = assay: Broth microdilution MIC, ATCC strains; conditions: Proteus mirabilis, ATCC29245, read-out: MIC (growth inhibition, microdilution method)
From the text: as §1, §2

S. aureus ATCC 29213 = assay: Broth microdilution MIC, ATCC strains; conditions: Staphylococcus aureus
From the text: as §1, §2

[1] = test system: S. epidermidis ATCC 14990; assay: Broth microdilution MIC, ATCC strains; conditions: Staphylococcus epidermidis
From the text: as §1, §2

[2] = test system: S. maltophilia ATCC 13637; assay: Broth microdilution MIC, ATCC strains; conditions: Stenotrophomonas maltophilia
From the text: as §1, §2

[3] = test system: S. saprophyticus ATCC 15305; assay: Broth microdilution MIC, ATCC strains; conditions: Staphylococcus saprophyticus
From the text: as §1, §2

S. simulans ATCC 27848 = assay: Broth microdilution MIC, ATCC strains; conditions: Staphylococcus simulans, ATCC27848, read-out: MIC (growth inhibition, microdilution method)
From the text: as §1, §2

S. warneri ATCC 27836 = assay: Broth microdilution MIC, ATCC strains; conditions: Staphylococcus warneri
From the text: as §1, §2

P. rettgeri CAP = assay: Broth microdilution MIC, reference strains; conditions: Providencia rettgeri, read-out: MIC (growth inhibition, microdilution method)
From the text: as §1, §2

[4] = test system: C. amalonaticus clinical isolates; assay: Broth microdilution MIC, clinical isolate strains (NAUTICA); conditions: clinical isolates, one table line per isolate; unit assumed
From the text: as §1, §2

[5] = test system: C. freundii clinical isolates; assay: as above; conditions: clinical isolates, one table line per isolate; in µg/mL (unit assumed)
From the text: as §1, §2

[6] = test system: C. koseril clinical isolates; assay: as above; conditions: clinical isolates, one table line per isolate; unit assumed
From the text: as §1, §2

[7] = test system: E. aerogenes clinical isolates; assay: as above; conditions: clinical isolates, one table line per isolate; unit assumed
From the text: as §1, §2

[8] = test system: E. cloacae clinical isolates; assay: as above; conditions: clinical isolates, one table line per isolate; unit assumed
From the text: as §1, §2

[9] = test system: K. oxytoca clinical isolates; assay: as above; conditions: clinical isolates, one table line per isolate; unit assumed
From the text: as §1, §2

[10] = test system: K. pneumoniae clinical isolates; assay: as above; conditions: clinical isolates, one table line per isolate; unit assumed
From the text: as §1, §2

[11] = test system: M. morganii clinical isolates; assay: as above; conditions: clinical isolates, one table line per isolate; unit assumed
From the text: as §1, §2

[12] = test system: P. mirabilis clinical isolates; assay: as above; conditions: clinical isolates, one table line per isolate; unit assumed
From the text: as §1, §2

[13] = test system: P. vulgaris clinical isolates; assay: as above; conditions: clinical isolates, one table line per isolate; unit assumed
From the text: as §1, §2

[14] = test system: S. liquifaciens clinical isolates; assay: as above; conditions: clinical isolates, one table line per isolate; unit assumed
From the text: as §1, §2

[15] = test system: S. marcescens clinical isolates; assay: as above; conditions: clinical isolates, one table line per isolate; unit assumed
From the text: as §1, §2

[16] = test system: A. baumanii clinical isolates; assay: as above; conditions: clinical isolates, one table line per isolate; unit assumed
From the text: as §1, §2

[17] = test system: B. cepacia clinical isolates; assay: as above; conditions: clinical isolates, one table line per isolate; unit assumed
From the text: as §1, §2

[18] = test system: E. coli clinical isolates; assay: as above; conditions: clinical isolates, one table line per isolate; unit assumed
From the text: as §1, §2

[19] = test system: P. retgerri clinical isolates; assay: as above; conditions: clinical isolates, one table line per isolate; unit assumed
From the text: as §1, §2

[20] = test system: P. stuartii clinical isolates; assay: as above; conditions: clinical isolates, one table line per isolate; unit assumed
From the text: as §1, §2

[21] = test system: S. maltophilia clinical isolates; assay: as above; conditions: clinical isolates, one table line per isolate; unit assumed
From the text: as §1, §2

[22] = ATCC19606, A. anitratus ATCC 19606, read-out: MIC (growth inhibition, microdilution method)
[23] = ATCC29213, read-out: MIC (growth inhibition, microdilution method)
[24] = ATCC13637, S. maltophilia ATCC 13637, read-out: MIC (growth inhibition, microdilution method)
[25] = ATCC15305, read-out: MIC (growth inhibition, microdilution method)
[26] = ATCC27836, S. warneri ATCC 27836, read-out: MIC (growth inhibition, microdilution method)
[27] = ATCC14990, S. epidermidis ATCC 14990, read-out: MIC (growth inhibition, microdilution method)

Structure (SMILES)	MIC (A. anitratus ATCC 19606; [22]) [µg/mL]	MIC (E. aerogenes ATCC 13048) [µg/mL]	MIC (E. cloacae ATCC 23355) [µg/mL]	MIC (K. pneumoniae ATCC 13883) [µg/mL]	MIC (P. mirabilis ATCC 29245) [µg/mL]	MIC (S. aureus ATCC 29213; [23]) [µg/mL]	MIC (S. simulans ATCC 27848) [µg/mL]	MIC (P. rettgeri CAP) [µg/mL]	MIC, C. AMALONATICUS [4] [µg/mL]	MIC, C. FREUNDII [5]	MIC, C. KOSERI [6] [µg/mL]	MIC, E. AEROGENES [7] [µg/mL]	MIC, E. CLOACAE [8] [µg/mL]	MIC, K. OXYTOCA [9] [µg/mL]	MIC, K. PNEUMONIAE [10] [µg/mL]	MIC, M. MORGANII [11] [µg/mL]	MIC, P. MIRABILIS [12] [µg/mL]	MIC, P. VULGARIS [13] [µg/mL]	MIC, S. LIQUEFACIENS [14] [µg/mL]	MIC, S. MARCESCENS [15] [µg/mL]	further results
O=C(O)c1cc(-c2nnn[nH]2)c(C(=O)O)s1 [DNM-111, 3-(1H-tetrazol-5-yl)thiophene-2,5-dicarboxylic acid]	64 (≈ 266 µM)	128 (≈ 533 µM)	128 (≈ 533 µM)	128 (≈ 533 µM)	128 (≈ 533 µM)	128 (≈ 533 µM)	256 (≈ 1070 µM)	128 (≈ 533 µM)	128 (≈ 533 µM)	128	128 (≈ 533 µM)	128 (≈ 533 µM)	128 (≈ 533 µM)	128 (≈ 533 µM)	128 (≈ 533 µM)	128 (≈ 533 µM)	128 (≈ 533 µM)	128 (≈ 533 µM)	128 (≈ 533 µM)	128 (≈ 533 µM)	MIC ([1]; ATCC14990, read-out: MIC (growth inhibition, microdilution method)): 128 µg/mL (≈ 533 µM); MIC [2, 24]: 64 µg/mL (≈ 266 µM); MIC [3, 25]: 128 µg/mL (≈ 533 µM); MIC (S. warneri ATCC 27836; [26]): 256 µg/mL (≈ 1070 µM)
Cn1nnc(-c2cc(C(=O)O)sc2C(=O)O)n1 [DNM-112, 3-(2-Methyl-2H-tetrazol-5-yl)-thiophene-2,5-dicarboxylic acid]	–	> 256	> 256	> 256	> 256	–	8 (≈ 31.5 µM)	> 256	> 256	>256	> 256	> 256	> 256	> 256	> 256	> 256	> 256	> 256	> 256	> 256	MIC (A. anitratus ATCC 19606; ATCC19606, read-out: MIC (growth inhibition, microdilution method)): > 256 µg/mL; MIC (S. aureus ATCC 29213; ATCC29213, S. aureus ATCC 29213, read-out: MIC (growth inhibition, microdilution method)): 16 µg/mL (≈ 62.9 µM); MIC [1, 27]: 16 µg/mL (≈ 62.9 µM); MIC ([2]; ATCC13637, read-out: MIC (growth inhibition, microdilution method)): > 256 µg/mL; MIC ([3]; ATCC15305, S. saprophyticus ATCC 15305, read-out: MIC (growth inhibition, microdilution method)): 64 µg/mL (≈ 252 µM); MIC (S. warneri ATCC 27836; [26]): 64 µg/mL (≈ 252 µM); MIC, A. BAUMANII [16]: > 256 µg/mL; MIC, B. CEPACIA [17]: > 256 µg/mL; MIC, E. COLI [18]: > 256 µg/mL; MIC, P. RETTGERI [19]: > 256 µg/mL; MIC, P. STUARTII [20]: > 256 µg/mL; MIC, S. MALTOPHILIA [21]: > 256 µg/mL
COC(=O)c1cc(-c2nnn(C)n2)c(C(=O)OC)s1 [DNM-114, 3-(2-methyl-2H-tetrazol-5-yl)-thiophene-2,5-dicarboxylic acid dimethyl ester]	64 (≈ 227 µM)	128 (≈ 453 µM)	128 (≈ 453 µM)	128 (≈ 453 µM)	128 (≈ 453 µM)	128 (≈ 453 µM)	256 (≈ 907 µM)	128 (≈ 453 µM)	128 (≈ 453 µM)	128	128 (≈ 453 µM)	128 (≈ 453 µM)	128 (≈ 453 µM)	128 (≈ 453 µM)	128 (≈ 453 µM)	128 (≈ 453 µM)	128 (≈ 453 µM)	128 (≈ 453 µM)	128 (≈ 453 µM)	128 (≈ 453 µM)	MIC [1, 27]: 64 µg/mL (≈ 227 µM); MIC [2, 24]: 64 µg/mL (≈ 227 µM); MIC [3, 25]: 128 µg/mL (≈ 453 µM); MIC (S. warneri ATCC 27836; ATCC27836, read-out: MIC (growth inhibition, microdilution method)): 128 µg/mL (≈ 453 µM); MIC, B. CEPACIA [17]: 64 µg/mL (≈ 227 µM); MIC, E. COLI [18]: 128 µg/mL (≈ 453 µM); MIC, P. RETTGERI [19]: 128 µg/mL (≈ 453 µM)
